Measurements taken from patent EP1240898A2, “Use of 2-deoxy ecdysterone for the preparation of a medicament for inducing labour or abortion” (Council of Scientific and Industrial Research, priority 2000, dated 2001).

What was measured:
[1] = system: guinea pig uterus; assay: Oxytocic activity on isolated guinea pig uterus (height of contraction compared with standard oxytocin or PGF2α); format: cell-based; conditions: at the concentration of 200 µg/ml
[2] = radiolabelled, injected into human volunteers, within 5 hours; cited from earlier work

| Structure (SMILES) | potency compared with the standards (in words) [1] | radioactivity excreted in the urine [2] |
| --- | --- | --- |
| CC(C)(O)CC[C@@H](O)[C@](C)(O)[C@H]1CC[C@@]2(O)C3=CC(=O)[C@@H]4C[C@@H](O)CC[C@]4(C)[C@H]3CC[C@]12C [2-deoxy ecdysterone] | more potent than the standard oxytocin and PGF2α | – |
| CCCCC[C@H](O)/C=C/[C@H]1[C@H](O)CC(=O)[C@@H]1C/C=C\CCCC(=O)O [PGE2] | – | about 50% |
| CCCCC[C@H](O)/C=C/[C@@H]1[C@@H](C/C=C\CCCC(=O)O)[C@@H](O)C[C@H]1O [PGF2α] | – | around 90% |
